{"source": "patent US4347319A", "about": "“Microbiological epoxidation process” (priority 1980, dated 1982)", "key": {"[1]": {"system": "Methylobacter chroococcum CRL M6 NRRL B-11,214", "experiment": "Sec. alcohol oxidation by cell suspensions of methanol-grown cells", "assay_type": "cell-based", "details": "sec. alcohol to methyl ketone", "from_the_text": "(§1) In this example, the procedure of Example 1 was repeated except that a plurality of the methane-utilizing methylotrophic microorganisms of the invention were each aerobically grown in a methanol-containing nutrient medium instead of a methane-containing medium. The nutrients in the medium were the same as indicated in Example 1 except that 0.4% v/v methanol was used as the alcohol dehydrogenase enzyme inducer and major source of carbon and energy for growth. Following growth the cells were harvested and washed as described in Example 1. The resting cells of the induced methanol-grown methylotrophic microorganisms were then contacted with a […] under aerobic conditions in a buffered solution by the procedure described in Example 1."}, "[2]": {"system": "Methylobacter vinelandii CRL M5Y NRRL B-11,218", "experiment": "Sec. alcohol oxidation by cell suspensions of methanol-grown cells", "assay_type": "cell-based", "details": "sec. alcohol to methyl ketone", "from_the_text": "as §1"}, "[3]": {"system": "Methylobacterium organophilum CRL 26 NRRL B-11,222", "experiment": "Sec. alcohol oxidation by cell suspensions of methanol-grown cells", "assay_type": "cell-based", "details": "sec. alcohol to methyl ketone", "from_the_text": "as §1"}, "[4]": {"system": "Methylococcus capsulatus CRL M1 NRRL B-11,219", "experiment": "Sec. alcohol oxidation by cell suspensions of methanol-grown cells", "assay_type": "cell-based", "details": "sec. alcohol to methyl ketone", "from_the_text": "as §1"}, "[5]": {"system": "Methylocystis parvus CRL 18 NRRL B-11,204", "experiment": "Sec. alcohol oxidation by cell suspensions of methanol-grown cells", "assay_type": "cell-based", "details": "sec. alcohol to methyl ketone", "from_the_text": "as §1"}, "[6]": {"system": "Methylomonas methanica CRL M4P NRRL B-11,205", "experiment": "Sec. alcohol oxidation by cell suspensions of methanol-grown cells", "assay_type": "cell-based", "details": "sec. alcohol to methyl ketone", "from_the_text": "as §1"}, "[7]": {"system": "Methylosinus trichosporium CRL 15 NRRL B-11,202", "experiment": "Sec. alcohol oxidation by cell suspensions of methanol-grown cells", "assay_type": "cell-based", "details": "sec. alcohol to methyl ketone", "from_the_text": "as §1"}, "[8]": {"system": "Candida utilis ATCC 26387", "experiment": "Oxidation of sec-alcohols to ketones by cell suspensions of yeasts", "assay_type": "cell-based", "details": "sec-alcohol to methyl ketone"}, "[9]": {"system": "Hansenula polymorpha ATCC 26012", "experiment": "Oxidation of sec-alcohols to ketones by cell suspensions of yeasts", "assay_type": "cell-based", "details": "sec-alcohol to methyl ketone"}, "Pichia sp. NRRL-Y-11328": {"system": "Pichia sp. NRRL-Y-11328", "experiment": "Oxidation of sec-alcohols to ketones by cell suspensions of yeasts", "assay_type": "cell-based", "details": "sec-alcohol to methyl ketone"}, "[10]": {"system": "Torulopsis sp. Strain A1 (NRRLY-11,419)", "experiment": "Oxidation of sec-alcohols to ketones by cell suspensions of yeasts", "assay_type": "cell-based", "details": "sec-alcohol to methyl ketone"}, "[11]": {"system": "Kloeckera sp. Strain A2 (NRRLY-11,420)", "experiment": "Oxidation of sec-alcohols to ketones by cell suspensions of yeasts", "assay_type": "cell-based", "details": "sec-alcohol to methyl ketone"}, "[12]": {"system": "cell extract of Candida utilis ATCC 26,387", "experiment": "Oxidation of secondary alcohols to methylketone by cell extracts of yeasts", "assay_type": "biochemical", "details": "methanol-grown; cell extract + NAD^+; sec. alcohol to methyl ketone; gas chromatography"}, "[13]": {"system": "cell extract of Hansenula polymorpha ATCC 26,012", "experiment": "Oxidation of secondary alcohols to methylketone by cell extracts of yeasts", "assay_type": "biochemical", "details": "methanol-grown; cell extract + NAD^+; sec. alcohol to methyl ketone; gas chromatography"}, "[14]": {"system": "cell extract of Pichia sp. NRRL-Y-11,328", "experiment": "Oxidation of secondary alcohols to methylketone by cell extracts of yeasts", "assay_type": "biochemical", "details": "methanol-grown; cell extract + NAD^+; sec. alcohol to methyl ketone; gas chromatography"}, "[15]": {"system": "cell extract of Torulopsis sp. strain A1 NRRL-Y-11,419", "experiment": "Oxidation of secondary alcohols to methylketone by cell extracts of yeasts", "assay_type": "biochemical", "details": "methanol-grown; cell extract + NAD^+; sec. alcohol to methyl ketone; gas chromatography"}, "[16]": {"system": "cell extract of Kloeckera sp. strain A2 NRRL-Y-11,420", "experiment": "Oxidation of secondary alcohols to methylketone by cell extracts of yeasts", "assay_type": "biochemical", "details": "methanol-grown; cell extract + NAD^+; sec. alcohol to methyl ketone; gas chromatography"}, "[17]": {"system": "purified secondary alcohol dehydrogenase from Pichia sp. NRRL Y-11,328", "experiment": "Substrate specificity, electron acceptor and stoichiometry of purified yeast SADH", "assay_type": "biochemical", "details": "examined spectrophotometrically"}, "[18]": {"system": "Methylocystis parvus (CRL 18 PM4) NRRL B-11,204", "experiment": "Oxidation by washed cell suspensions of methane-grown cells", "assay_type": "cell-based", "details": "methane-grown cells; product 2-butanone", "description": "The pH of the nutrient medium was adjusted to 7.0 by the addition of acid or base and 50 ml samples of the nutrient medium were charged into a plurality of 300 ml shaker flasks. The shaker flasks were inoculated with an inoculating loop of cells from an agar plate containing homogeneous colonies of the microorganisms on the plate (the purity of the isolates was confirmed by microscopic examination. The isolates had been maintained on agar plates under an atmosphere of methane and air having a 1:1 v/v gas ratio which had been transferred evey two weeks. The gaseous phase of the inoculated flasks was then replaced with a gas mixture comprised of methane and air having a ratio of 1:1 on a v/v basis. The inoculated flasks were sealed air tight and were incubated on a rotary shaker of orbital radius 2.5 cm at 250 rpm and at 30° C. for two days until turbidity in the medium had developed.\nThe cells were harvested by centrifugation at 10,000×g. at 4° C. for 30 minutes. The cell pellet was washed twice with a 0.15 M phosphate buffer at a pH of 7.0 (containing 0.002 M MgCl2). The washed cells were then suspended in a 0.15 M phosphate buffer at pH 7.0.\nA 0.5 ml sample of each washed cell suspension (2 mg cells) was put into 10 ml vials at 4° C. which were sealed with a rubber cap. The gaseous phase of the vials was removed with vacuum and then was replaced with a gas mixture of the oxidative substrate (e.g., methane) and oxygen at a 1:1 v/v ratio. The vials were then incubated at 30 ° C. on a rotary shaker at 300 rpm. Samples of product (3 μl) were withdrawn periodically with a microsyringe and the products were analyzed by gas chromatography (ionization flame detector column).\nThe newly discovered and isolated microorganism strains of the present invention were each grown aerobically in the presence of methane in the manner described above. The methane-grown microbial cells were then washed, recovered and put to use in oxidizing an oxidative substrate by the procedure described above except in the case of a liquid substrate 10 μl of the substrate were used."}}, "data": [{"smiles": "CCCC(C)O", "note": "(stereo not drawn) [2-Pentanol]", "values": [{"measurement": "Conversion Rates", "setting": "[1]", "value": 0.08, "unit": "μmoles/hr/mg protein"}, {"measurement": "Conversion Rates", "setting": "[2]", "value": 0.05, "unit": "μmoles/hr/mg protein"}, {"measurement": "Conversion Rates", "setting": "[3]", "value": 1.0, "unit": "μmoles/hr/mg protein"}, {"measurement": "Conversion Rates", "setting": "[4]", "value": 0.24, "unit": "μmoles/hr/mg protein"}, {"measurement": "Conversion Rates", "setting": "[5]", "value": 0.07, "unit": "μmoles/hr/mg protein"}, {"measurement": "Conversion Rates", "setting": "[6]", "value": 0.05, "unit": "μmoles/hr/mg protein"}, {"measurement": "Conversion Rates", "setting": "[7]", "value": 0.09, "unit": "μmoles/hr/mg protein"}, {"measurement": "Conversion Rate", "setting": "[8]; growth substrate Ethanol", "value": "1.0 μmoles/hr/mg of protein"}, {"measurement": "Conversion Rate", "setting": "[8]; growth substrate Methanol", "value": "1.5 μmoles/hr/mg of protein"}, {"measurement": "Conversion Rate", "setting": "[8]; growth substrate Methylamine", "value": "1.2 μmoles/hr/mg of protein"}, {"measurement": "Conversion Rate", "setting": "[8]; growth substrate Methylformate", "value": "1.3 μmoles/hr/mg of protein"}, {"measurement": "Conversion Rate", "setting": "[8]; growth substrate Propylamine", "value": "0.9 μmoles/hr/mg of protein"}, {"measurement": "Conversion Rate", "setting": "[9]; growth substrate Ethanol", "value": "1.1 μmoles/hr/mg of protein"}, {"measurement": "Conversion Rate", "setting": "[9]; growth substrate Methanol", "value": "1.4 μmoles/hr/mg of protein"}, {"measurement": "Conversion Rate", "setting": "[9]; growth substrate Methylamine", "value": "1.2 μmoles/hr/mg of protein"}, {"measurement": "Conversion Rate", "setting": "[9]; growth substrate Methylformate", "value": "1.3 μmoles/hr/mg of protein"}, {"measurement": "Conversion Rate", "setting": "[9]; growth substrate Propylamine", "value": "0.82 μmoles/hr/mg of protein"}, {"measurement": "Conversion Rate", "setting": "Pichia sp. NRRL-Y-11328; growth substrate Ethanol", "value": "1.0 μmoles/hr/mg of protein"}, {"measurement": "Conversion Rate", "setting": "Pichia sp. NRRL-Y-11328; growth substrate Methanol", "value": "1.2 μmoles/hr/mg of protein"}, {"measurement": "Conversion Rate", "setting": "Pichia sp. NRRL-Y-11328; growth substrate Methylamine", "value": "0.72 μmoles/hr/mg of protein"}, {"measurement": "Conversion Rate", "setting": "Pichia sp. NRRL-Y-11328; growth substrate Methylformate", "value": "0.98 μmoles/hr/mg of protein"}, {"measurement": "Conversion Rate", "setting": "Pichia sp. NRRL-Y-11328; growth substrate Propylamine", "value": "0.60 μmoles/hr/mg of protein"}, {"measurement": "Conversion Rate", "setting": "[10]; growth substrate Ethanol", "value": "1.2 μmoles/hr/mg of protein"}, {"measurement": "Conversion Rate", "setting": "[10]; growth substrate Methanol", "value": "1.0 μmoles/hr/mg of protein"}, {"measurement": "Conversion Rate", "setting": "[10]; growth substrate Methylamine", "value": "0.9 μmoles/hr/mg of protein"}, {"measurement": "Conversion Rate", "setting": "[10]; growth substrate Methylformate", "value": "1.1 μmoles/hr/mg of protein"}, {"measurement": "Conversion Rate", "setting": "[10]; growth substrate Propylamine", "value": "0.62 μmoles/hr/mg of protein"}, {"measurement": "Conversion Rate", "setting": "[11]; growth substrate Ethanol", "value": "1.0 μmoles/hr/mg of protein"}, {"measurement": "Conversion Rate", "setting": "[11]; growth substrate Methanol", "value": "1.2 μmoles/hr/mg of protein"}, {"measurement": "Conversion Rate", "setting": "[11]; growth substrate Methylamine", "value": "1.0 μmoles/hr/mg of protein"}, {"measurement": "Conversion Rate", "setting": "[11]; growth substrate Methylformate", "value": "1.2 μmoles/hr/mg of protein"}, {"measurement": "Conversion Rate", "setting": "[11]; growth substrate Propylamine", "value": "0.92 μmoles/hr/mg of protein"}, {"measurement": "Conversion Rate", "setting": "[12]", "value": 0.82, "unit": "μmoles/hr/mg Protein"}, {"measurement": "Conversion Rate", "setting": "[13]", "value": 1.0, "unit": "μmoles/hr/mg Protein"}, {"measurement": "Conversion Rate", "setting": "[14]", "value": 1.2, "unit": "μmoles/hr/mg Protein"}, {"measurement": "Conversion Rate", "setting": "[15]", "value": 1.0, "unit": "μmoles/hr/mg Protein"}, {"measurement": "Conversion Rate", "setting": "[16]", "value": 1.2, "unit": "μmoles/hr/mg Protein"}, {"measurement": "oxidation by the purified enzyme", "setting": "[17]", "value": "catalyzed the oxidation"}]}, {"smiles": "CCC(C)=O", "note": "[Butanone]", "values": [{"measurement": "Conversion Rate to Ketone", "setting": "[18]", "value": 1.0, "unit": "μmoles/hr/mg Protein"}]}]}
